The values that follow come from the RepoRT retention time repository.

Structures can show the parent of a compound that is named as a salt.

The data set is described as follows: RP, Thermo Scientific Hypersil GOLD, 1.9 µm, 40 °C, 0.4 mL/min; A: water + 0.1% formic acid, pH 3; B: acetonitrile + 0.1% formic acid, pH 3; gradient (min/%B) 0/0 1/0 11/100 13/100 14/0 16/0. The following applies: stereoisomer not certain.

For `O=CCC(O)C(O)CO` (centres undefined), the LC retention time was 0.82 min.

Consider `CC(C)C(O)C(=O)O` (centres undefined), for which the LC retention time came out at 4.13 min.

For `O=C(O)CCCCC1CCSS1` (racemic), the LC retention time was 7.53 min.

As for `C#CC1(O)CCC2C3CCc4cc(O)ccc4C3CCC21C` (racemic), the LC retention time came to 8.17 min.

As to `CC(N)(Cc1cnc[nH]1)C(=O)O` (racemic) [Alpha-methyl-DL-histidine dihydrochloride], the LC retention time worked out at 0.61 min.

In the case of `[NH3+]C(C(=O)[O-])C(O)c1ccccc1` (racemic) [L-Threo-3-Phenylserine (DL-3-Phenylserine)], the LC retention time is 1.14 min.

Regarding `CC(=O)NC(C(=O)O)C(C)C` (racemic) [N-acetyl-DL-valine], the LC retention time turned out to be 4.62 min.

Regarding `O=C(O)CC(Cc1ccccc1)C(=O)O` (racemic) [dl-benzylsuccinic acid], the LC retention time amounted to 6.38 min.

For the molecule `Oc1cc(O)c2c(c1)OC(c1ccc(O)c(O)c1)C(O)C2` (single isomer, unassigned; (+)) [(+)-Catechin hydrate], the LC retention time turned out to be 4.73 min.

Turning to `O=C(OC1Cc2c(O)cc(O)cc2OC1c1cc(O)c(O)c(O)c1)c1cc(O)c(O)c(O)c1` (single isomer, unassigned; (-)) [(-)-Epigallocatechin gallate], the LC retention time came to 5.05 min.

In the case of `CN1C2CC(OC(=O)C(CO)c3ccccc3)CC1C1OC12` (single isomer, unassigned; (-)) [(-)-Scopolamine hydrochloride], the LC retention time amounted to 4.91 min.

For the molecule `O=C(O)CC(=O)CC(=O)O` [1-3-Acetonedicarboxylic acid], the LC retention time came to 0.8 min.

For `OCC1OCC(O)C(O)C1O` [1-5-Anhydro-D-sorbitol], the LC retention time was 0.7 min.

In the case of `Cn1c(=O)[nH]c2[nH]c(=O)n(C)c2c1=O` [1-7-Dimethyluric acid], the LC retention time worked out at 4.27 min.

In the case of `NC1(C(=O)O)CC1` [1-AMINOCYCLOPROPANECARBOXYLATE], the LC retention time is 0.64 min.

Consider `O=C(O)c1ccc2ccccc2c1[O-]` [1-HYDROXY-2-NAPHTHOATE], for which the LC retention time was determined as 8.24 min.

Take `Cn1cnc(C[C@H](N)C(=O)O)c1` [1-METHYL-L-HISTIDINE]: the LC retention time turned out to be 0.59 min.

`Cn1cnc2c(ncn2C2OC(CO)C(O)C2O)c1=N` (centres undefined) [1-METHYLADENOSINE]: the LC retention time was determined as 3.82 min.

As to `C[n+]1cccc(C(N)=O)c1` [1-METHYLNICOTINAMIDE], the LC retention time is 0.63 min.

As to `Nc1cccc2ccccc12` [1-NAPHTHYLAMINE], the LC retention time is 5.87 min.

As for `CC(=O)c1ccc(O)cc1O` [2'-4'-DIHYDROXYACETOPHENONE], the LC retention time stood at 6.1 min.

For `COC1C(O)C(CO)OC1n1cnc2c(=O)[nH]cnc21` (centres undefined) [2'-O-Methylinosine], the LC retention time was found to be 3.73 min.

Turning to `CC(C)(CCC(=O)O)C(=O)O` [2-2-Dimethylglutaric acid], the LC retention time was 5.21 min.

As for `CC(C)(CC(=O)O)C(=O)O` [2-2-Dimethylsuccinic acid], the LC retention time was determined as 4.85 min.

As to `O=C(O)c1cccc(O)c1O` [2-3-DIHYDROXYBENZOATE], the LC retention time was found to be 5.01 min.

In the case of `O=c1[nH]c(=O)c2nccnc2[nH]1` [2-4-DIHYDROXYPTERIDINE], the LC retention time was 0.96 min.

`O=C(O)c1ccc(O)cc1O` [2-4-Dihydroxybenzoic acid]: the LC retention time worked out at 4.88 min.

Take `O=C(O)c1cc(O)ccc1O` [2-5-DIHYDROXYBENZOATE]: the LC retention time amounted to 4.52 min.

For the molecule `O=c1cccc(O)[nH]1` [2-6-DIHYDROXYPYRIDINE], the LC retention time stood at 1.09 min.

On to `O=C(O)c1c(O)cccc1O` [2-6-Dihydroxybenzoic acid], for which the LC retention time came to 5.12 min.

Take `O=c1ccc2cc(O)ccc2[nH]1` [2-6-quinolinediol]: the LC retention time was 4.44 min.

`CC(=O)N[C@@H]1[C@@H](O)[C@H](O)[C@@H](CO)O[C@H]1N` [2-ACETAMIDO-2-DEOXY-BETA-D-GLUCOSYLAMINE]: the LC retention time was 0.6 min.

Turning to `CC(C)(N)C(=O)O` [2-AMINOISOBUTYRATE], the LC retention time worked out at 0.67 min.

Turning to `Nc1ccccc1O` [2-AMINOPHENOL], the LC retention time was 0.9 min.

In the case of `Nc1ncccc1C(=O)O` [2-Aminopyridine-3-carboxylic acid], the LC retention time was determined as 0.81 min.

Regarding `CSCCC(O)C(=O)O` (centres undefined) [2-HYDROXY-4-(METHYLTHIO)BUTANOATE], the LC retention time is 4.21 min.

Regarding `CCC(O)C(=O)[O-]` (centres undefined) [2-HYDROXYBUTYRATE], the LC retention time was 1.71 min.

Regarding `O=c1cccc[nH]1` [2-HYDROXYPYRIDINE], the LC retention time is 1.6 min.

Turning to `CC(C)CC(O)C(=O)O` (centres undefined) [2-Hydroxyisocaproic acid], the LC retention time was 6.31 min.

As to `CC(C)C(O)(CC(=O)O)C(=O)O` (centres undefined) [2-Isopropylmalic acid], the LC retention time came to 4.79 min.

For `CC(CCC(=O)O)C(=O)O` (centres undefined) [2-METHYLGLUTARATE], the LC retention time was 4.4 min.

In the case of `Cc1ccccc1C(=O)NCC(=O)O` [2-Methylhippuric acid (ortho-Methylhippuric acid)], the LC retention time was found to be 5.31 min.

Consider `Cc1ncccc1C(N)=O` [2-Methylnicotinamide], for which the LC retention time turned out to be 0.69 min.

Consider `O=C(O)CCCC(=O)C(=O)O` [2-OXOADIPATE], for which the LC retention time came out at 1.05 min.

Turning to `CCC(=O)C(=O)[O-]` [2-OXOBUTANOATE], the LC retention time stood at 9.98 min.

Take `NC(C(=O)O)c1ccccc1` (centres undefined) [2-Phenylglycine]: the LC retention time is 0.83 min.

On to `O=C(O)c1ccc2ccccc2n1` [2-QUINOLINECARBOXYLATE], for which the LC retention time was determined as 4.64 min.

With `CCCCC(O)C(=O)O` (centres undefined) [2-hydroxycaproic acid], the LC retention time came out at 5.43 min.

`O=C(O)C(=O)CCc1ccccc1` [2-oxo-4-phenyl-butyric acid]: the LC retention time came out at 6.35 min.

Take `CC(C)(CC(=O)O)CC(=O)O` [3-3-Dimethylglutaric acid]: the LC retention time was 5.04 min.

`O=C(O)C(O)c1ccc(O)c(O)c1` (centres undefined) [3-4 DIHYDROXYMANDELATE]: the LC retention time was found to be 0.91 min.

As to `NC(Cc1ccc(O)c(O)c1)C(=O)O` [3-4-DIHYDROXY-L-PHENYLALANINE], the LC retention time stood at 0.82 min.

On to `O=C(O)c1ccc(O)c(O)c1` [3-4-DIHYDROXYBENZOATE], for which the LC retention time came to 3.49 min.

Turning to `O=C(O)Cc1ccc(O)c(O)c1` [3-4-DIHYDROXYPHENYLACETATE], the LC retention time came out at 4.32 min.

On to `OCC(O)c1ccc(O)c(O)c1` (centres undefined) [3-4-DIHYDROXYPHENYLGLYCOL], for which the LC retention time came out at 0.92 min.

For the molecule `O=S(=O)(O)c1ccc(O)c(O)c1` [3-4-dihydroxybenzenesulfonic acid], the LC retention time is 0.84 min.

In the case of `NC(Cc1cc(I)c(Oc2ccc(O)cc2)c(I)c1)C(=O)O` [3-5-DIIODO-L-THYRONINE], the LC retention time is 6.31 min.

In the case of `O=C(O)c1cc(O)cc(O)c1` [3-5-Dihydroxybenzoic acid], the LC retention time was found to be 3.57 min.

As to `O=C(O)CCc1ccc(O)cc1O` [3-(2-4-Dihydroxyphenyl)propionic acid], the LC retention time worked out at 4.83 min.

Take `O=C([O-])CCc1ccccc1O` [3-(2-HYDROXYPHENYL)PROPANOATE]: the LC retention time was 5.92 min.

With `Nc1cc(C(=O)O)ccc1[O-]` [3-AMINO-4-HYDROXYBENZOATE], the LC retention time came to 0.82 min.

With `Nc1cc([O-])cc(C(=O)O)c1` [3-AMINO-5-HYDROXYBENZOATE], the LC retention time stood at 0.81 min.

For the molecule `Nc1c(O)cccc1C(=O)O` [3-HYDROXYANTHRANILATE], the LC retention time was determined as 3.43 min.

On to `O=Cc1cccc(O)c1` [3-HYDROXYBENZALDEHYDE], for which the LC retention time was 5.4 min.

For `O=C(O)c1cccc(O)c1` [3-HYDROXYBENZOATE], the LC retention time was 5.04 min.

For the molecule `CC(O)(CC(=O)O)CC(=O)O` [3-HYDROXYMETHYLGLUTARATE], the LC retention time came to 1.48 min.

With `O=C(O)Cc1cccc(O)c1` [3-HYDROXYPHENYLACETATE], the LC retention time stood at 5.11 min.

With `O=C(O)C(O)c1cccc(O)c1` (centres undefined) [3-Hydroxymandelic acid], the LC retention time amounted to 2.66 min.

For `NC(=O)c1ncccc1O` [3-Hydroxypicolinamide], the LC retention time was determined as 4.64 min.

Consider `COc1cc(C(O)C(=O)O)ccc1O` (centres undefined) [3-METHOXY-4-HYDROXYMANDELATE], for which the LC retention time was 2.15 min.

Consider `COc1cc(CCN)ccc1O` [3-METHOXYTYRAMINE], for which the LC retention time was 2.47 min.

On to `CC1C(=O)Nc2ccccc21` (centres undefined) [3-METHYL-2-OXINDOLE], for which the LC retention time is 6.25 min.

Consider `Cn1cnc(=N)c2[nH]cnc21` [3-METHYLADENINE], for which the LC retention time is 0.8 min.

For `Cn1cncc1CCN` [3-METHYLHISTAMINE], the LC retention time is 0.57 min.

Turning to `CC(CCC(=O)O)CC(=O)O` (centres undefined) [3-Methyladipic acid], the LC retention time was 5.01 min.

For the molecule `CC(C)=CC(=O)OC(CC(=O)[O-])C[N+](C)(C)C` [3-Methylcrotonyl-L-carnitine], the LC retention time amounted to 4.71 min.

In the case of `Cc1cccnc1` [3-Methylpyridine (3-Picoline)], the LC retention time came out at 0.82 min.

Take `Cn1c(=O)[nH]c(=O)c2[nH]cnc21` [3-Methylxanthine]: the LC retention time was determined as 2.61 min.

Turning to `N[C@@H](Cc1ccc(O)c([N+](=O)[O-])c1)C(=O)O` [3-NITRO-L-TYROSINE], the LC retention time stood at 3.77 min.

Turning to `NC(CS(=O)O)C(=O)O` (centres undefined) [3-SULFINOALANINE], the LC retention time stood at 0.67 min.

In the case of `CC12CCC3C(CC=C4CC(O)CCC43C)C1CCC2=O` (centres undefined) [3-b-Hydroxyandrost-5-en-17-one (Dehydroepiandrosterone)], the LC retention time is 4.86 min.

As for `CC(C)C(C(=O)O)C(O)C(=O)O` (centres undefined) [3-isopropylmalic acid], the LC retention time was determined as 4.68 min.

In the case of `CC(=O)NCCCC(=O)O` [4-ACETAMIDOBUTANOATE], the LC retention time was 1.69 min.

Regarding `Nc1ccc(C(=O)O)cc1` [4-AMINOBENZOATE], the LC retention time worked out at 3.29 min.
